“Also recorded” adds a separate entry of the source. *1 amine or outer side, *2 acyl side, *3 side chain or, on linkers, in order; H or OH if unused. Where a SMILES comes first, the peptide text is derived from it. [ ]: non-standard residue; d: D form. Phe(4-Br) = N[C@@H](Cc1ccc(Br)cc1)C(=O)O; X1 = N=C(N)NCCCN(N[*:1])C(=O)[*:2]; azaLeu = CC(C)CN(N[*:1])C(=O)[*:2]; NMeL = CN[C@@H](CC(C)C)C(=O)O; pGlu = O=C1CC[C@@H](C(=O)O)N1; Nle = CCCC[C@H](N)C(=O)O; Aib = CC(C)(N)C(=O)O

This note sets out measurements from patent publication US10640545B2 (THE GOVERNORS OF THE UNIVERSITY OF ALBERTA, priority 2017, dated 2020).

Series [1] relates to recombinant human neprilysin (rhNEP, Sino Biological). The experiment in a line: rhNEP diluted in Tris buffer (100 mM Tris, 100 mM NaCl, 10 μM ZnCl2, pH 7.5), 3.1 nM final concentration. The settings on record: 37° C., up to 72 h.
The target of series [2] is T1, wild-type rat apelin receptor (Rattus norvegicus, UniProt Q9JHG3).
T1 construct: expressed in transfected cells
T1 sequence (Q9JHG3 1-377): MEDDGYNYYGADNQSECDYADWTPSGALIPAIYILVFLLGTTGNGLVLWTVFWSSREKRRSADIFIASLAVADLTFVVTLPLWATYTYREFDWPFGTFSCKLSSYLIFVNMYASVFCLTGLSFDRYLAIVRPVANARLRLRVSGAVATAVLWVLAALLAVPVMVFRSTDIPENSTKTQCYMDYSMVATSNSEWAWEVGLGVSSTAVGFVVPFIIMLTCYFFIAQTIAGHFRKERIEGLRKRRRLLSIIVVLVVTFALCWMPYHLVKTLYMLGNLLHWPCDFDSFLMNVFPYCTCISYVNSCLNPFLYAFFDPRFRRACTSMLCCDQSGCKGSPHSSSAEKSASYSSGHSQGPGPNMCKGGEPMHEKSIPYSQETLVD
The experiment in a line: Radioligand binding, displacement of [125I]-pyr-1-apelin-13 on CHO cell membranes. Conditions: for Ki: displacement of [125I]-pyr-1-apelin-13 (0.2 nM), CHO membranes, rat apelin receptor-EGFP, means ± SE, read-out: Affinity Ki; for receptor binding affinity (in words): rat apelin receptor; for weaker affinity compared to 1, by a factor: ratio of Ki to native 1. The procedure: This experiment evaluated the ability of peptides of the present embodiments to bind to the wild-type rat apelin receptor, in order to examine the impact of synthetic modification within the critical RPRL motif of the apelin peptides.
Membrane preparations from CHO cells stably expressing the wild-type rat apelin receptor-EGFP were prepared as previously described (Gerbier et al., New Structural Insights Into The Apelin Receptor: Identification Of Key Residues For Apelin binding; FASEB J. 2015, 29, 314-322; Iturrioz et. al., Development Of Original Metabolically-Stable Apelin-17 Peptides With Diuretic And Cardiovascular Effects; FASEB J. 2017, 31, 687-700.) Crude membrane preparations (1 μg total mass of membranes/assay) were incubated for 3 h at 20° C. with 0.2 nM [^125I]-pyr-1-apelin-13 (monoiodinated on Lys^8 with Bolton-Hunter reagent, Perkin Elmer, Wellesley, Mass., USA) in binding buffer (50 mM HEPES, 5 mM MgCl2 1149 pH 7.5, BSA 1%) alone or in presence of the different compounds at various concentrations. The reaction was stopped by adding 4 mL of cold binding buffer, filtered on Whatman GF/C filters and washed with 5 mL of cold binding buffer. Radioactivity was then counted using a Wizard 1470 Wallac gamma counter (Perkin Elmer, Turku, Finland). Binding experiment data were analyzed with Graph Pad Prism.

In series [3] the test system is anesthetized mice. The experiment in a line: Blood pressure assay in anesthetized mice. The format is in vivo. The settings on record: 1.4 μM/kg body weight injected; for blood pressure lowering (hypotensive) effect: SBP, DBP, MABP. The procedure: Synthetic peptides 8-19 were tested for blood pressure lowering abilities in anesthetized mice. Apelin peptides were injected through […], monitoring blood pressure (BP) and heart rate (HR) over 60 minutes.
Mice were anaesthetized with 1.5% isoflurane/oxygen, and body temperature was monitored and maintained at 36° C. by a heating pad. The aorta was cannulated via the right carotid artery using a PV loop catheter (Model 1.2F from Scisense, Transonic) in order to continuously record arterial blood pressure and heart rate (LabScribe 2.0, Scisense). […] Results are reported as systolic blood pressure (SBP), diastolic blood pressure (DBP), mean arterial blood pressure (MABP) and heart rate (HR).
Apelin peptides 11, 56-59 as well as the KLKB1-cleavage fragments 54 and 55 were tested for blood pressure lowering abilities in anesthetized mice.
Mice were anesthetized with 1.5% isoflurane/oxygen, and body temperature was monitored and maintained at 36° C. by a heating pad. The aorta was cannulated via the right carotid artery using a PV loop catheter (model 1.2F from Scisense, Transonic) in order to continuously record arterial blood pressure and heart rate (LabScribe 2.0, Scisense). Compounds 11, and 54-59 or 55-59 (1.4 μM/kg body weight) or the same volume of saline was injected via the right jugular vein. Results are reported as systolic blood pressure (SBP), diastolic blood pressure (DBP), mean arterial blood pressure (MABP), and heart rate (HR) shown in FIGS. 15A-D.
Apelin peptides were delivered systemically via the right internal jugular vein while blood pressure (BP) and heart rate (HR) were continuously monitored in the aorta cannulated via the right carotid artery. All N-terminally extended apelin peptides, except 58, show pronounced and time-stable blood pressure lowering effects (FIGS. 15a-d). […] This correlates with the results obtained from the Ca^2+ mobilization assay.

Series [4] can be described thus: in vitro. Conditions: human, plasma.
The test system of series [5] is isolated rat hearts. The experiment in a line: Langendorff isolated heart, ischemia-reperfusion injury. The settings on record: ex vivo heart, 30 min ischemia, peptide at start of reperfusion for 10 min at 1 pM. The procedure:
The ex vivo heart was assessed for a variety of parameters (heart rate (HR); left ventricle developed pressure (LVDP); maximum derivative of change in systolic pressure over time (max dP/dt); minimum derivative of change in diastolic pressure over time (min dP/dt); and rate-pressure product (RPP)) indicative of general heart function and performance (FIG. 11).
Langendorff heart perfusion and ischemia-reperfusion injury were prepared and cardiac function was measured. Mice were heparinized and anaesthetized with 1.5-2% isoflurane inhalation. The heart was excised, mounted on a Langendorff system, and perfused at a consistent pressure of 80 mmHg with modified Krebs-Henseleit solution (116 mM NaCl, 3.2 mM KCl, 2.0 mM CaCl2), 1.2 mM MgSO4, 25 mM NaHCO3, 1.2 mM KH2PO4, 11 mM glucose, 0.5 mM EDTA and 2 mM pyruvate), which was kept at 37° C. and continuously oxygenated with 95% O2 and 5% CO2 which maintained the perfusion buffer at pH 7.4. After stabilization and 10 min baseline recording, global ischemia was induced for 30 min followed by 40 min of reperfusion. Apelin 17 (2) or apelin peptides (11, 17, 18, or 19) were given at the start of reperfusion for 10 min at a concentration of 1 pM. Left ventricular functions were obtained continuously by PowerLab system (ADInstruments, Australia). Data was reported as mean value of every 5 min. Left ventricular functions were reported as: Left Ventricular Developed Pressure (LVDP); Heart rate (HR); maximum derivative of change in systolic pressure over time (max dP/dt); minimum derivative of change in diastolic pressure over time (min dP/dt); and Rate Pressure Product (RPP).

“pGlu-Arg-Pro-Arg-NMeLeu-Ser-His-Lys-Gly-Pro-Nle-Aib-paraBrPhe”: the cleaved bond result in series [1] is given as “Nle11-Aib12, minor”.
Same read-out and setting: in the case of “pGlu-Arg-Pro-Arg-azaLeu-Ser-His-Lys-Gly-Pro-Nle-Aib-paraBrPhe” it was “Nle11-Aib12, minor”.
The Ki is a measure of affinity in units of concentration, obtained from inhibition or displacement. As a reminder, the share remaining is what is left of the initial amount, in per cent. Low values mean more turnover, high ones less turnover. Consider `CCCC[C@H](NC(=O)[C@@H]1CCCN1C(=O)CNC(=O)[C@H](CCCCN)NC(=O)[C@H](Cc1c[nH]cn1)NC(=O)[C@H](CO)NC(=O)[C@H](CC(C)C)N(C)C(=O)[C@H](CCCNC(=N)N)NC(=O)[C@@H]1CCCN1C(=O)[C@H](CCCNC(=N)N)NC(=O)[C@@H]1CCC(=O)N1)C(=O)NC(C)(C)C(=O)N[C@@H](Cc1ccc(Br)cc1)C(=O)O` [Peptide 10, pGlu-Arg-Pro-Arg-NMeLeu-Ser-His-Lys-Gly-Pro-Nle-Aib-paraBrPhe] ([pGlu]RPR[NMeL]SHKGP[Nle][Aib][Phe(4-Br)]-OH; C-terminus assumed), for which, in series [2], the Ki amounted to 100 ± 48 pM and the “receptor binding affinity (in words)” value was “modest improvement in receptor binding”. In addition, in series [3], the “effect on heart rate (HR)” value was “significant and pronounced effect of increasing the murine HR; also recorded: had an impact on the heart rate”; the “blood pressure lowering (hypotensive) effect” value (“blood pressure lowering” below) is reported as “no ability to decrease blood pressure; also recorded: without inducing any vasoactive effects”. In series [4], the share remaining at 0.5 h, 80 µM worked out at 77 ± 3% and the fraction remaining at 1 h, 80 µM was found to be 59 ± 6%.
With “pGlu-Arg-Pro-αMeArg-Leu-Ser-His-Lys-Gly-Pro-Nle-Aib-paraBrPhe”, the cleaved bond entry in series [1] is reported as “Nle11-Aib12, minor”.
Consider “Lys-Phe-Arg-Arg-Gln-Arg-Pro-Arg-αMeLeu-Ser-His-Lys-Gly-Pro-Nle-Aib-paraBrPhe”, for which the cleaved bond entry in series [1] is on record as “Nle15-Aib16, minor”.
Take `CCCC[C@H](NC(=O)[C@@H]1CCCN1C(=O)CNC(=O)[C@H](CCCCN)NC(=O)[C@H](Cc1c[nH]cn1)NC(=O)[C@H](CO)NC(=O)[C@H](CC(C)C)NC(=O)[C@H](CCCNC(=N)N)NC(=O)[C@@H]1CCCN1C(=O)[C@H](CCCNC(=N)N)NC(=O)[C@@H]1CCC(=O)N1)C(=O)NC(C)(C)C(=O)N[C@@H](Cc1ccc(Br)cc1)C(=O)O` [Peptide 4] ([pGlu]RPRLSHKGP[Nle][Aib][Phe(4-Br)]-OH; C-terminus assumed): the “weaker affinity compared to 1, by a factor” value in series [2] was found to be 6. Also, the “blood pressure lowering” value in series [3] is “potent physiological effects”. In series [4], this molecule displayed a share remaining at 0.5 h, 80 µM of 77 ± 19% and an amount remaining at 1 h, 80 µM of 65 ± 14%.
Take “Lys-Phe-Arg-Arg-Gln-Arg-Pro-αMeArg-Leu-Ser-His-Lys-Gly-Pro-Nle-Aib-paraBrPhe”: the cleaved bond result in series [1] is on record as “Nle15-Aib16, minor”.
For the molecule `CCCC[C@H](NC(=O)[C@@H]1CCCN1C(=O)CNC(=O)[C@H](CCCCN)NC(=O)[C@H](Cc1c[nH]cn1)NC(=O)[C@H](CO)NC(=O)[C@H](CC(C)C)NC(=O)N(CCCNC(=N)N)NC(=O)[C@@H]1CCCN1C(=O)[C@H](CCCNC(=N)N)NC(=O)[C@@H]1CCC(=O)N1)C(=O)NC(C)(C)C(=O)N[C@@H](Cc1ccc(Br)cc1)C(=O)O` [Peptide 16, pGlu-Arg-Pro-azaArg-Leu-Ser-His-Lys-Gly-Pro-Nle-Aib-paraBrPhe] ([pGlu]RP[X1]LSHKGP[Nle][Aib][Phe(4-Br)]-OH; C-terminus assumed), in series [2], the Ki was 1000 ± 100 pM and the “weaker affinity compared to 1, by a factor” value is on record as 3. In addition, in series [3], the “effect on heart rate (HR)” value was “significant and pronounced effect of increasing the murine HR; also recorded: had an impact on the heart rate”; the “blood pressure lowering” value is “without inducing any vasoactive effects”. In series [4], this molecule had an amount remaining at 0.5 h, 80 µM of 83 ± 3% and a share remaining at 1 h, 80 µM of 57 ± 1%.
As for “pGlu-Arg-Pro-Arg-αMeLeu-Ser-His-Lys-Gly-Pro-Nle-Aib-paraBrPhe”, the cleaved bond entry in series [1] is on record as “Nle11-Aib12, minor”.
In the case of `CCCC[C@H](NC(=O)[C@@H]1CCCN1C(=O)CNC(=O)[C@H](CCCCN)NC(=O)[C@H](Cc1c[nH]cn1)NC(=O)[C@H](CO)NC(=O)N(CC(C)C)NC(=O)[C@H](CCCNC(=N)N)NC(=O)[C@@H]1CCCN1C(=O)[C@H](CCCNC(=N)N)NC(=O)[C@@H]1CCC(=O)N1)C(=O)NC(C)(C)C(=O)N[C@@H](Cc1ccc(Br)cc1)C(=O)O` [Peptide 18, pGlu-Arg-Pro-Arg-azaLeu-Ser-His-Lys-Gly-Pro-Nle-Aib-paraBrPhe] ([pGlu]RPR[azaLeu]SHKGP[Nle][Aib][Phe(4-Br)]-OH; C-terminus assumed), in series [2], the Ki worked out at 130 ± 63 pM and the “receptor binding affinity (in words)” value was “modest improvement in receptor binding”. Further, in series [5], the “ability to rescue the heart from ischemic reperfusion injury” value was “behaved comparably to that of the negative saline control”. In series [4], this molecule registered a fraction remaining at 0.5 h, 80 µM of 19 ± 5% and an amount remaining at 1 h, 80 µM of 2 ± 1%.
As to “pGlu-Arg-Pro-azaArg-Leu-Ser-His-Lys-Gly-Pro-Nle-Aib-paraBrPhe”, in series [1], the cleaved bond result is “Nle11-Aib12, minor”.
With “Lys-Phe-Arg-Arg-Gln-Arg-Pro-Arg-azaLeu-Ser-His-Lys-Gly-Pro-Nle-Aib-paraBrPhe”, the cleaved bond entry in series [1] is recorded as “Nle15-Aib16, minor”.
`CCCC[C@H](NC(=O)[C@@H]1CCCN1C(=O)CNC(=O)[C@H](CCCCN)NC(=O)[C@H](Cc1c[nH]cn1)NC(=O)[C@H](CO)NC(=O)[C@@H](CC(C)C)NC(=O)[C@H](CCCNC(=N)N)NC(=O)[C@@H]1CCCN1C(=O)[C@H](CCCNC(=N)N)NC(=O)[C@H](CCC(N)=O)NC(=O)[C@H](CCCNC(=N)N)NC(=O)[C@H](CCCNC(=N)N)NC(=O)[C@H](Cc1ccccc1)NC(=O)[C@@H](N)CCCCN)C(=O)NC(C)(C)C(=O)N[C@@H](Cc1ccc(Br)cc1)C(=O)O` [Peptide 9] (H-KFRRQRPR[dL]SHKGP[Nle][Aib][Phe(4-Br)]-OH; N-terminus and C-terminus assumed): the Ki in series [2] came out at 140 ± 56 pM. In series [3], the “effect on heart rate (HR)” value is “had an impact on the heart rate” and the “blood pressure lowering” value is reported as “inactivity; also recorded: without inducing any vasoactive effects”. In series [4], this molecule yielded a fraction remaining at 0.5 h, 80 µM of 80 ± 3% and a share remaining at 1 h, 80 µM of 80 ± 4%.
